Test results as given in patent US9096875B2 (Montana State University, priority 2010, dated 2015).
Several values for one entry are separate records, joined by “and”; a condition that tells them apart may be missing. Equal values may be shown once. Read-outs that look alike come from different tables or passages of the source.

Columns and labels:
Scenedesmus WC-1 = settings: for total Nile Red fluorescence reached: began to increase at 5 d; for Dry Weight (DCW) / Final Cell Density / Final Total Nile Red Fluorescence / Final Specific Nile Red Intensity Cell-1: WC-1, 5% CO2 → Air; for Dry Weight (DCW) / Final Cell Density / Final Total Nile Red Fluorescence: n = 3; for Final Specific Nile Red Intensity Cell-1: fluorescence signal/cell density × 10,000
Experimental: Cultures were grown with 5% CO2 until nitrate depletion was imminent.
(§1) Scenedesmus sp. strain WC-1 (WC-1) was isolated and confirmed unialgal as previously described (Gardner et al. 2010). WC-1 was cultured on Bold's basal medium with pH adjusted to 8.7 with KOH previous to autoclaving (Nichols and Bold 1965). Phaeodactylum tricornutum strain Pt-1 (CCMP 2561) (Pt-1) was acquired from The Provasoli-Guillard National Center for Culture of Marine Phytoplankton (CCMP). Pt-1 was cultured on ASP II medium and 50 mM Tris buffer (Sigma-Aldrich, St. Louis Mo.), pKa 7.8 (Provasoli et al. 1957). Both organisms were checked for bacterial contamination by inoculation into respective medium supplemented with 0.05% yeast extract and 0.05% glucose and incubated in the dark. Experiments were conducted in triplicate in batch culture using 70 mm×500 mm glass tubes containing 1 L media submersed in a water bath to control temperature. Rubber stoppers, containing ports for aeration and sampling, were used to seal the tubes. Temperature was maintained at 24° C. and 20° C., ±1° C., for WC-1 and Pt-1, respectively. Light (400 μmoles m^−2s^−1) was maintained on a 14:10 light:dark cycle by a T5 light bank. Aeration (400 mL min^−1) was supplied by humidified compressed air with and without 5% CO2 (v/v) and controlled using individual rotameters on each bioreactor (Cole-Parmer, Vernon Hills Ill.).
(§2) Cell concentrations were determined using an optical hemacytometer with a minimum of 400 cells counted for statistical reliability. Light micrographs and Nile Red fluorescence images were taken using a transmitted/epifluorescence light microscope (Nikon Eclipse E800) with an Infinity 2 color camera.
Medium pH was measured on samples using a standard bench top pH meter. Nitrate in Bolds basal medium was measured by ion chromatography (IC) using an IonPac AS9-HC Anion-Exchange Column (Dionex) with a 9.0 mM sodium carbonate buffer set at a flow rate of 1.0 mL min^−1. Detection was performed using a CD20 conductivity detector (Dionex) at 21° C., and IC data was analyzed on Dionex PeakNet 5.2 software. Nitrate in ASP II medium was measured using a colorimetric assay based on the reaction of Czechrome NAS reagent (Polysciences Inc., Warrington Pa.) with nitrate ions. In brief, 1 mL of culture was centrifuged at 16,000 g for 15 minutes. The supernatant liquid was then collected for nitrate quantification. 0.1 mL of sample was gently mixed with 1 mL of reagent solution prepared as described by the manufacturer (Polysciences Inc., Warrington Pa.), and incubated 20 minutes at room temperature. The absorbance was read at 570 nm, and nitrate concentration of the sample was calculated using a nitrate standard curve.
(§3) Cellular TAG accumulation was estimated using the Nile Red (9-diethylamino-5H-benzo(α)phenoxazine-5-one) (Sigma-Aldrich, St. Louis Mo.) fluorescence method (Cooksey et al. 1987). TAG accumulation over time was measured by removing 1 mL aliquots from cultures and assayed directly with Nile Red (4 μL from […] in acetone) or by diluting with 4 mL ultrapure H2O or salt water for WC-1 and Pt-1, respectively, before assaying directly with Nile Red (20 μL from […] in acetone). To maintain linearity of the Nile Red assay, dilution was required when population counts exceeded 1×10^7 cell mL^−1 and 3×10^6 cell mL^−1 for WC-1 and Pt-1, respectively. Total Nile Red fluorescence was quantified on a microplate reader (Bio-Tek, Winooski, Vt.) utilizing 480/580 nm excitation/emission filters.

[1] = system: Phaeodactylum tricornutum Pt-1
Experimental: The diatom was cultured in ASP II medium, with or without adding NaHCO3 under 14:10 L:D cycle at […] A non-limiting example of ASP II medium is shown below:
as §1, §2
as §3, with “filters. […] To minimize fluorescence spillover, black walled 96-well plates were loaded with 200 μL of sample. Unstained samples were used for background medium and cellular autofluorescence correction. […]” for “filters.”

diatom RGd-1 = settings: bicarbonate spike at 7.4 d, within 2-3 d of the spike, ambient air, 14:10 light-dark
Source text: RGd-1 was obtained from Yellowstone National Park under Permit No. YELL-2009-SCI-5480. These cultures were illuminated with 14:10 light-dark cycling with ambient air aeration.

Coelastrella sp. PC-3 = system: Coelastrella sp. PC-3
Experimental: The addition of 50 mM NaHCO3 prior to nitrate depletion was tested on Coelastrella sp. PC-3.

Chlorophyta sp. EN-2 = settings: 50 mM NaHCO3 prior to nitrate depletion
Experimental: The addition of 50 mM NaHCO3 prior to nitrate depletion was tested on Chlorophyta sp. EN-2.

Kirchneriella sp. 92 = settings: 50 mM NaHCO3 prior to nitrate depletion
Experimental: (§4) The addition of 50 mM NaHCO3 prior to nitrate depletion was tested on Chlorophytes Scenedesmus sp.

Scenedesmus sp. 131 = settings: 50 mM NaHCO3 prior to nitrate depletion
Experimental: as §4

[2] = HCO3 addition at 3.7 d (pre-nitrate depletion), harvest 8.0 d
[3] = HCO3 addition at 6.4 d (post-nitrate depletion), harvest 12.0 d

O=C([O-])[O-].[Na+].[Na+] [Na2CO3, sodium carbonate, reference compound]
TAG accumulation (Scenedesmus WC-1; all cases of Na2CO3 addition (individual, mix, buffered), near nitrate depletion): did not accumulate elevated levels of TAG

O=C([O-])O.[Na+] [bicarbonate, sodium bicarbonate]
TAG induction (Scenedesmus WC-1; 25 mM NaHCO3 with 25 mM CAPS buffer (pKa 10.3), near nitrate depletion): almost identical to the unbuffered additions
period of TAG accumulation (Scenedesmus WC-1; 50 mM bicarbonate added at 3.7 d (pre-nitrate depletion)): 5 to 8 days
Nile Red fluorescence after decrease to baseline (Scenedesmus WC-1; 50 mM bicarbonate added at 6.4 d, post-nitrate depletion): 450 units
Nile Red fluorescence / TAG accumulation response (Scenedesmus WC-1; 50 mM bicarbonate added post-nitrate depletion (stationary phase), aeration adjusted to ambient air, listed as NaHCO3): complete loss of cellular TAG accumulation
TAG accumulation (Scenedesmus WC-1; 25 and 50 mM added to unbuffered medium near nitrate depletion (FIG. 15)): induce similar levels of TAG
total Nile Red fluorescence reached (Scenedesmus WC-1; Example 4: 50 mM bicarbonate spike at 3.7 d, value 4 days later): 20,000 units
total Nile Red fluorescence reached (Scenedesmus WC-1; Example 5: 50 mM bicarbonate addition at 3.7 d, value 3 days later): 33,500 units
Dry Weight (DCW) (Scenedesmus WC-1; [2]): 1.1 ± 0.1 g/L
Final Cell Density (Scenedesmus WC-1; [2]): 1.34 ± 0.15 ×10^7 cells mL^−1
Final Total Nile Red Fluorescence (Scenedesmus WC-1; [2]): 33.5 ± 6.3 ×10^3 units
Final Specific Nile Red Intensity Cell-1 (Scenedesmus WC-1; [2]): 24.8 ± 2.2
Dry Weight (DCW) (Scenedesmus WC-1; [3]): 2.1 ± 0.0 g/L
Final Cell Density (Scenedesmus WC-1; [3]): 5.18 ± 0.41 ×10^7 cells mL^−1
Final Total Nile Red Fluorescence (Scenedesmus WC-1; [3]): 0.3 ± 0.3 ×10^3 units
Final Specific Nile Red Intensity Cell-1 (Scenedesmus WC-1; [3]): 0.1 ± 0.1
minimal concentration range needed to stop cellular replication (Scenedesmus WC-1; addition just prior to medium nitrate depletion): 10 to 15 mM
culture time at which maximum total Nile Red fluorescence was reached (Scenedesmus WC-1; bicarbonate supplemented culture, instead of 16-18 d in ambient aerated culture): 8 days
cell morphology by microscope (Scenedesmus WC-1; less than 10 mM NaHCO3 addition): did not indicate cell cycle halting characteristics
rate of TAG accumulation (Scenedesmus WC-1; when bicarbonate was added (50 mM, near nitrate depletion), versus ambient aerated culture): twice as fast
time to reach maximum Nile Red fluorescence signal (Scenedesmus WC-1; with bicarbonate spike, compared with 8-10 d under ambient air aeration with no spike): 3 to 4 days
Dry Weight (DCW) [1]: 0.1 ± 0.0 g/L
Final Cell Density [1]: 0.65 ± 0.01 ×10^7 cells mL^−1 and 1.02 ± 0.05 ×10^7 cells mL^−1
effect on cell replication [1]: cell replication was not inhibited
lipid production (Nile Red fluorescence) [1]: stimulated more lipid production
total Nile Red fluorescence increase over the no spike control (diatom RGd-1): 10 fold
TAG accumulation measured with Nile Red fluorescence (Coelastrella sp. PC-3): no observable increase in TAG accumulation
effect on cellular replication (Coelastrella sp. PC-3): cellular replication ceased
TAG accumulation rate (Chlorophyta sp. EN-2): observable increase
TAG per cell level (Nile Red specific fluorescence) (Chlorophyta sp. EN-2): observable increase
TAG accumulation rate (Kirchneriella sp. 92): decrease in TAG accumulation rate
TAG accumulation rate (Scenedesmus sp. 131): increase in TAG accumulation rate
